Laboratory results taken from US4990617A, “N-oxide prodrug derivatives of 3-hydroxy morphinans and partial morphinans and derivatives” (E. I. Du Pont de Nemours and Company, priority 1989, dated 1991).
Where a name gives a salt, the structure may show the parent alone. Read-outs that look alike come from different tables or passages of the source.

Assays:
[1] = literature, cited from earlier work
[2] = literature, cited from earlier work; for therapeutic index: relative to corresponding tertiary amines
[3] = administered to rabbits; literature; cited from earlier work
[4] = administered to mice; literature; cited from earlier work
[5] = administered to rats; literature; cited from earlier work
[6] = background, cited from earlier work
[7] = Plasma naltrexone concentration after oral dosing in dogs; format: in vivo; conditions: dog, normalized for dose
Method: (§1) Among the experiments used to evaluate the N-oxide prodrugs of the instant invention were measurements of their reduction rates in vitro by various biological media from rats, dogs, and humans, and drug bioavailability in rats and dogs administered oral doses of the prodrug. Drug concentration was determined after solvent extraction, using high pressure liquid chromatography analytical procedures.
(§2) Rats and dogs were administered the parent drug intravenously and orally, and the prodrugs were administered orally. Usually, doses were administered as aqueous solutions prepared immediately before dosing. Plasma was collected and frozen until analysis of drug concentration. The area under the plasma drug concentration versus time curve (AUC) was calculated for each animal. […]. Relative bioavailability (RB) of parent drug was determined by comparing the bioavailability from orally administered prodrug F(pro) with the bioavailability from orally administered parent drug F(drug). [formula]

[8] = rabbits administered oxycodone subcutaneously; literature; cited from earlier work
[9] = literature; cited from earlier work
[10] = guinea pig liver microsomal preparation; literature; cited from earlier work
[11] = literature, cited from earlier work; remark: listed apart in the source
[12] = Plasma naloxone concentration after oral dosing in dogs; format: in vivo; conditions: dog; for concentration at 0.5 h / concentration at 1 h / concentration at 2 h / concentration at 3 h / concentration at 4 h / concentration at 6 h / concentration at 8 h: in vivo, equimolar oral doses, read-out: Average Plasma Naloxone Conc.
Method: as §1, §2

[13] = In vitro reduction of N-oxide to drug in human plasma; format: in vitro ADME; conditions: 37° C., 0.28 μM
Method: as §1
(§3) Prodrug was added to fresh biological medium to a concentration of 0.28 μM, incubated at 37° C., and the rate of drug appearance was measured.

[14] = In vitro reduction of N-oxide to drug in dog plasma; format: in vitro ADME; conditions: 37° C., read-out: t1/2 of conversion of nalbuphine N-oxide to nalbuphine (converted)
Method: as §1, §3

[15] = In vitro reduction of N-oxide to drug in rat plasma; format: in vitro ADME; conditions: 37° C., read-out: t1/2 of conversion of nalbuphine N-oxide to nalbuphine (converted)
Method: as §1, §3

[16] = In vitro reduction of N-oxide to drug in rat liver homogenate; format: in vitro ADME; conditions: in 3 minutes, rat liver homogenate (25%), 37° C., read-out: Conversion of nalbuphine N-oxide to nalbuphine
Method: as §1, §3

[17] = In vitro reduction of N-oxide to drug in rat intestine homogenate; format: in vitro ADME; conditions: in 10 minutes, rat intestine homogenate (25%), 37° C., read-out: Conversion of nalbuphine N-oxide to nalbuphine
Method: as §1, §3

[18] = Oral bioavailability in rats; format: in vivo; conditions: plasma; rat, oral nalbuphine; read-out: F(DRUG), nalbuphine bioavailability from orally administered parent drug
Method: as §1
(§4) Rats and dogs were administered the parent drug intravenously and orally, and the prodrugs were administered orally. Usually, doses were administered as aqueous solutions prepared immediately before dosing. Plasma was collected and frozen until analysis of drug concentration. The area under the plasma drug concentration versus time curve (AUC) was calculated for each animal. Bioavailability (F) was estimated by: [formula] F represents the percentage of the administered dose absorbed into plasma. Relative bioavailability (RB) of parent drug was determined by comparing the bioavailability from orally administered prodrug F(pro) with the bioavailability from orally administered parent drug F(drug). [formula]

[19] = Oral bioavailability in dogs; format: in vivo; conditions: plasma, dog, read-out: oral bioavailability of nalbuphine
Method: as §1, §4

In the case of `CCC(=O)OC1(c2ccccc2)CC[N+](C)([O-])CC1` (stereo not drawn) [N-oxide of 1-methyl-4-phenyl-4-propionoxypiperidine HCl], the “duration of analgesic activity” value ([1]; relative to dolantin HCl) is listed as “of longer duration”, the analgesic activity [1] is listed as “analgesic activity equal to that of dolantin HCl” and the toxicity [2] is listed as “Toxicity was also less”.
For `CCC(=O)OC1(c2ccccc2)CC[N+](C)([O-])CC1` (stereo not drawn) [N-oxide of 1-methyl-4-phenyl-4-piperidinol propionate], the “reduction of N-oxide to tertiary amine” value [3] is listed as “partially reduced to the tertiary amine”, the “reduction of N-oxide to tertiary amine” value [4] is listed as “partially reduced to the tertiary amine” and the “reduction of N-oxide to tertiary amine” value [5] is listed as “partially reduced to the tertiary amine”.
For `COc1ccc2c3c1O[C@H]1C(=O)CC[C@@]4(O)[C@@H](C2)N(C)CC[C@]314` [Oxycodone], the oral potency [6] is given as “similarly good oral potency”.
With `O=C1CC[C@@]2(O)[C@H]3Cc4ccc(O)c5c4[C@@]2(CC[N+]3([O-])CC2CC2)[C@H]1O5` (stereo partly drawn) [Naltrexone N-oxide] the “Average Plasma Naltrexone Conc.” value ([7]; 0.25 hours) was 424 ng/mL, the “Average Plasma Naltrexone Conc.” value ([7]; 0.5 hours) was 752 ng/mL and the “Average Plasma Naltrexone Conc.” value ([7]; 1 hour) was 713 ng/mL. For the same compound, the “Average Plasma Naltrexone Conc.” value ([7]; 1.5 hours) was 559 ng/mL, the “Average Plasma Naltrexone Conc.” value ([7]; 2 hours) was 484 ng/mL and the “Average Plasma Naltrexone Conc.” value ([7]; 3 hours) was 251 ng/mL. The “Average Plasma Naltrexone Conc.” value ([7]; 4 hours) was 110 ng/mL, the “Average Plasma Naltrexone Conc.” value ([7]; 6 hours) was 24 ng/mL and the “Average Plasma Naltrexone Conc.” value ([7]; 8 hours) was 8 ng/mL.
In the case of `COc1ccc2c3c1O[C@H]1C(=O)CC[C@@]4(O)[C@@H](C2)[N+](C)([O-])CC[C@]314` (stereo partly drawn) [oxycodone N-oxide], the “form of metabolite in urine” value [8] is listed as “found only in the free, unconjugated form”.
For `CC[N+]([O-])(CC)CC(=O)N1CCN2C(=O)c3ccccc3C12c1ccccc1` (stereo not drawn), the pharmacological properties ([1]; Swiss Patent No. 481,124) is listed as “analgesic, sedative, antitussive, hypotensive, and spasmolytic properties”.
In the case of `C[N+]1([O-])CC[C@]23c4c5ccc(O)c4O[C@H]2[C@@H](O)C=C[C@H]3[C@H]1C5` (stereo partly drawn) [Morphine N-oxide], the analgesic activity [1] is given as “either less active or inactive as an analgesic”, the antitussive activity [9] is given as “effective antitussive” and the toxicity [2] is given as “somewhat lower toxicity than morphine”. The “reduction of N-oxide to tertiary amine” value [5] was “partially reduced to morphine”.
For `C[N+]1([O-])CC[C@]23CCCC[C@H]2[C@H]1Cc1ccc(O)cc13` (stereo partly drawn) [3-hydroxy-N-methylmorphinan N-oxide], the therapeutic index [2] is listed as “higher therapeutic index than the corresponding tertiary amines”.
For 3-methyl-morphine [Codeine], the “oral:parenteral potency ratio” value ([6]; relative to morphine) is listed as “much higher oral:parenteral potency ratio than morphine”, the “conversion to N-oxide” value [10] is listed as “converted in part to the corresponding N-oxides” and the “metabolism to N-oxide” value [5] is listed as “partially metabolized to the N-oxides”.
In the case of `C[N+]1([O-])CCC[C@H]1c1cccnc1` (stereo partly drawn) [nicotine-1'-N-oxide], the reduction to nicotine ([11]; man, oral versus intravenous) is given as “partially reduced to nicotine in man after oral administration, but not after intravenous administration” and the first-pass phenomenon ([11]; oral) is given as “substantially avoids the first-pass phenomenon seen with oral nicotine”.
In the case of `COc1ccc2c(c1)[C@@]13CCCC[C@H]1[C@@H](C2)[N+](C)([O-])CC3` (stereo partly drawn) [3-methoxy-N-methylmorphinan N-oxide], the therapeutic index [2] is given as “higher therapeutic index than the corresponding tertiary amines”.
In the case of `O=C1CC[C@@]2(O)[C@H]3Cc4ccc(O)c5c4[C@@]2(CCN3CC2CC2)[C@H]1O5` [Naltrexone, (-)-17-(Cyclopropylmethyl)-4,5α-epoxy-3,14-dihydroxymorphinan-6-one], the “Average Plasma Naltrexone Conc.” value ([7]; 0.25 hours) is reported as 9 ng/mL, the “Average Plasma Naltrexone Conc.” value ([7]; 0.5 hours) is reported as 9 ng/mL and the “Average Plasma Naltrexone Conc.” value ([7]; 1 hour) is reported as 4 ng/mL. The “Average Plasma Naltrexone Conc.” value ([7]; 1.5 hours) was 4 ng/mL, the “Average Plasma Naltrexone Conc.” value ([7]; 2 hours) was 0 ng/mL and the “Average Plasma Naltrexone Conc.” value ([7]; 3 hours) was 0 ng/mL. The “Average Plasma Naltrexone Conc.” value ([7]; 4 hours) was 0 ng/mL, the “Average Plasma Naltrexone Conc.” value ([7]; 6 hours) was 0 ng/mL and the “Average Plasma Naltrexone Conc.” value ([7]; 8 hours) was 0 ng/mL.
`C=CCN1CC[C@]23c4c5ccc(O)c4O[C@H]2C(=O)CC[C@@]3(O)[C@H]1C5` [Naloxone, (-)-17-Allyl-4,5α-epoxy-3,14-dihydroxymorphinan-6-one] gave a concentration at 0.5 h [12] of 451 ng/mL, a concentration at 1 h [12] of 176 ng/mL and a concentration at 2 h [12] of 65 ng/mL. For the same compound, the concentration at 3 h [12] was 30 ng/mL, the concentration at 4 h [12] was 10 ng/mL and the concentration at 6 h [12] was 10 ng/mL. It also gave a concentration at 8 h [12] of 5 ng/mL.
For `[O-][N+]1(CC2CCC2)CC[C@]23c4c5ccc(O)c4O[C@H]2[C@@H](O)CC[C@@]3(O)[C@H]1C5` (stereo partly drawn) [Nalbuphine N-oxide], the “Rate of conversion of nalbuphine N-oxide to nalbuphine” value [13] was “negligible”, the half-life at 0.28 µM [14] was 53.7 h and the half-life at 0.28 µM [15] was 6 h. The metabolised at 0.05 h, 0.28 µM [16] was 100% and the metabolised at 10 min, 0.28 µM [17] was 100%.
In the case of `C=CC[N+]1([O-])CC[C@]23c4c5ccc(O)c4O[C@H]2C(=O)CC[C@@]3(O)[C@H]1C5` (stereo partly drawn) [Naloxone N-oxide, naloxone N-oxide], the “Oral naloxone bioavailability when administered as the N-oxide, relative to naloxone” value ([12]; oral) is reported as “improved”, the concentration at 0.5 h [12] is reported as 947 ng/mL and the concentration at 1 h [12] is reported as 1220 ng/mL. It also gave a concentration at 2 h [12] of 797 ng/mL, a concentration at 3 h [12] of 289 ng/mL and a concentration at 4 h [12] of 107 ng/mL. It also gave a concentration at 6 h [12] of 22 ng/mL and a concentration at 8 h [12] of 6 ng/mL.
`Oc1ccc2c3c1O[C@H]1[C@@H](O)CC[C@@]4(O)[C@@H](C2)N(CC2CCC2)CC[C@]314` [Nalbuphine, (-)-17-(Cyclobutylmethyl)-4,5α-epoxymorphinan-3,6α,14-triol] showed a bioavailability [18] of 2.7 ± 0.4% and a bioavailability [19] of 5.4%.
